Measured values from patent publication US6468509B2, “Sunscreen composition containing sol-gel microcapsules” (Sol-Gel Technologies Ltd., priority 1999, dated 2002).

What was measured:
yeast strain, XD83 = assay: Phototoxicity test based on survival of yeast under simulated sunlight; type: cell-based; conditions: simulated sunlight 13 mW/cm^2
Procedure: The phototoxicity tests are based on the survival of a yeast strain, XD83. A single colony of yeast is inoculated into growth medium, and harvested during the exponential growth. The cells are suspended at a known concentration in a phosphate buffer, to afford a uniform population of cells. The cells are illuminated with simulated sunlight (13 mW/cm^2) in the absence or presence of test compounds with continous stirring. Samples are taken at increasing times (0, 10, 20, 30 minutes of illumination). The samples are analyzed semi-quantitatively, by applying two dilutions of the sample as small droplets (10 μl) to the surface of nutrient agar plates, and incubated at 37° C. for 48 hours. Patches of growth are found around the droplet. It can be easily seen when growth has been decreased. Sunscreen samples are introduces as 1000 μM concentration of the major UVB sunscreen active ingredient.

supercoiled plasmid DNA = conditions: positive controls at saturation concentrations; cited from earlier work

Compound: CCCCC(CC)COC(=O)c1ccc(N(C)C)cc1 (stereo not drawn) [Padimate-O, 2-Ethylhexyl N,N-Dimethyl-p-aminobenzoate]
- phototoxic effect on the growth of the yeast cell (yeast strain, XD83; positive controls): strong phototoxic effect
- Phototoxicity (yeast strain, XD83; yeast XD83, 0-30 minutes illumination, 1000 μM of major UVB sunscreen active ingredient): Clearly toxic
- strand breaks on DNA when illuminated in vitro (supercoiled plasmid DNA): inflict strand breaks on DNA
